Eight compounds from publication PMC7731314, “Tropinone-Derived Alkaloids as Potent Anticancer Agents: Synthesis, Tyrosinase Inhibition, Mechanism of Action, DFT Calculation, and Molecular Docking Studies” (International Journal of Molecular Sciences, 2020) can be followed below.

Series [1] deals with human breast adenocarcinoma (MDA-MB-231) cell line. Put plainly: MTT cell proliferation assay, MDA-MB-231. Conditions: read-out: IC50 ± SD MDA-MB-231. The class given is cell-based. The text has this: (§1) The influence of the tested compounds on the proliferation of melanoma B16F10 and breast MDA-MB-231 cells was estimated with the MTT assay as described previously. The cells counted using an automated cell counter (Countess® II FL, Invitrogen by Thermo Fisher Scientific Inc., Waltham, MA USA) and plated in 96-well plates (Nunc Edge 2F, Thermo Fisher Scientific Inc.) at a density of 0.1 × 10^4 and 0.2 × 10^4 per well, respectively. A total of twenty-four hours later, drugs were applied with final concentration: 5, 0.5, 0.05, and 0.005 μg/mL, and after an additional seventy-two hours MTT staining was performed as follows: twenty microliters of 5 mg/mL MTT solution and was added to each well of 96-well plate incubated for 2 h. Subsequently, the medium was removed and crystals of formazan were solubilized in pure isopropanol. Absorbance readout was conducted immediately using plate reader Multiskan Spectrum at 570 nm (Thermo Electron Corporation, Waltham, MA, USA). The background optical density was measured in the wells filled with culture medium, without the cells. The biological evaluation was performed as three independent experiments. The IC50 values were calculated using ED50plus v 1.0 freeware software and the mean response and standard deviation were calculated using Excel software. All of the chemicals were obtained from Sigma-Aldrich.

The test system of series [2] is mouse skin melanoma (B16-F10) cell line. Put plainly: MTT cell proliferation assay, B16-F10. The class given is cell-based. Conditions: read-out: IC50 ± SD B16-F10.
Excerpt: as §1

In series [3] the test system is human multiple myeloma (RPMI 8226) cell line. The experiment in a line: MTT cell proliferation assay, RPMI 8226. The class given is cell-based. Conditions: antiproliferative, 96 h, read-out: IC50 ± SD RPMI 8226. As to the method:
(§2) The influence of the tested compounds on the proliferation of RPMI 8226 and A549 cells was estimated with the MTT assay as described previously. Briefly, 1 × 10^4 cells/mL (RPMI 8226) or 0.2 × 10^4 (A549) cells per well were seeded into 96-well plates and cultured (in growth medium containing 10% FBS) with different concentrations of each compound ranging from 3.125 to 100 μM. The control cells were treated with the vehicle DMSO (0.1%).

Series [4] deals with human lung carcinoma (A549) cell line. Put plainly: MTT cell proliferation assay, A549. The class given is cell-based. The following applies: antiproliferative, 96 h, read-out: IC50 ± SD A549. As to the method: as §2
Series [5] has as its target mushroom tyrosinase (Agaricus bisporus, UniProt C7FF04). The experiment in a line: Kinetic analysis of the inhibition of tyrosinase (Lineweaver-Burk). The class given is biochemical. Conditions: tyrosinase-catalyzed oxidation of L-DOPA. As to the method: To understand the mechanism of mushroom tyrosinase inhibition by new compounds 3a–3h, enzyme inhibition kinetic studies were performed. The mechanism of tyrosinase inhibition was determined using Lineweaver–Burk plot, which is a useful graphical method for analysis of the Michaelis–Menten equations used to determine the inhibition constant […].
A series of experiments were performed to determine the inhibition kinetics of compounds by following the already reported method. The inhibitor concentrations for compounds were 50 and 100 µM. Substrate L-DOPA concentration was between 100 and 250 µM in all kinetic studies. Maximal initial velocity was determined from the initial linear portion of absorbance up to ten minutes after addition of enzyme. The inhibition type of the enzyme, Michaelis constant (KM) and maximal velocity (Vmax) were determined by Lineweaver–Burk plots of inverse of velocities (1/V) versus inverse of substrate concentration 1/[L-DOPA] mM^−1.

Series [6] relates to human normal skin fibroblasts (HSF).
Protocol: (§3) The human normal skin fibroblasts, i.e., the HSF cell line, were a laboratory strain obtained with the outgrowth technique from skin explants from young volunteers (with subjects’ written informed consent). […] The CCD18-Co cells were grown in Eagle Medium (Sigma-Aldrich, St. Louis, MO, USA) supplemented with 2 mM L-glutamine (Sigma-Aldrich) and 1mM sodium pyruvate (Sigma-Aldrich, St. Louis, MO, USA), 10% FBS, (without antibiotics). HSF were cultured in a 1:1 mixture of Dulbecco’s modified Eagle Medium and Eagle Medium (Sigma-Aldrich) containing 10% FBS, 100 units/mL of penicillin, and 100 mg/mL of streptomycin. […] All cell lines were cultured in a humidified 5% CO2 atmosphere at a temperature of 37 °C. A stock solution of each tested compound was made in dimethylsulfoxide (DMSO; Sigma-Aldrich) and stored at 4 °C until use. The drug was diluted in an appropriate culture medium immediately before use.
(§4) The influence of the tested compounds on normal cell viability was estimated with the MTT assay. The CCD-18Co and HSF cells were seeded in 96-well microplates at a density of 1 × 10^5 cells/mL in complete growth medium. The next day, the medium was replaced with a fresh one containing 2% FBS (growth restriction) and the cells were exposed to each tested compound (3.156–100 µM) to study the acute toxicity in vitro. After 24-h incubation, the medium was removed and the cells were incubated for 3 h with an MTT solution; next, formazan crystals were solubilized overnight by adding SDS buffer and absorbance was determined at a wavelength of 570 nm using an EL800 Microplate Reader (BioTek Instruments, Winooski, VT, USA). The absorbance of the control wells was taken as 100% and the cell viability was expressed as a percentage of the control. CC50 values, defined as concentrations of the compounds necessary to reduce cell viability by 50%, were calculated from nonlinear regression (log(inhibitor) vs. normalized response-variable slope) using GraphPad Prism 5.0.
Series [7] concerns human normal colon fibroblasts (CCD-18Co).
Protocol: as §3, §4
The nature of series [8]: in vitro.
Protocol: as §3, §4
Series [9] in a line: in vitro. The following applies: human.
Protocol: as §3, §4
Setting [10] is: MDA-MB-231, antiproliferative, MTT, 72 h.
[11] abbreviates: B16-F10, antiproliferative, MTT, 72 h.

Like-named read-outs stand apart in the source and are kept apart here. Bounds are passed on as bounds.

Sequence of mushroom tyrosinase (C7FF04 1-392): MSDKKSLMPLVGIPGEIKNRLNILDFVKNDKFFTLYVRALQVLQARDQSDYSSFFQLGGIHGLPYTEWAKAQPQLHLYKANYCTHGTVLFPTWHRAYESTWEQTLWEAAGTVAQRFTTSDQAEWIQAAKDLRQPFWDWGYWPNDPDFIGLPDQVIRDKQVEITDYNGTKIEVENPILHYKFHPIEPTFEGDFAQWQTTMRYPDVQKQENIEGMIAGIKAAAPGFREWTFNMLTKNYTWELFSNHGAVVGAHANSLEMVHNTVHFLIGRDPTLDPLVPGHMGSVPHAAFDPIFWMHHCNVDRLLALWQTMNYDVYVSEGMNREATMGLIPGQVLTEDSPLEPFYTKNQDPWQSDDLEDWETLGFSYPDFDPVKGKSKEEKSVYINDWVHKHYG

As to `O=C(O)CCCc1ccc(N(CCCl)CCCl)cc1` [Chlorambucil, reference compound], the IC50 stood at 4.71 ± 0.5 µM in series [1] (MDA-MB-231, 72 h) and 2.92 ± 0.1 µM in series [2] (B16-F10, 72 h).

`COc1ccc(-c2csc(NN=C3CC4CCC(C3)N4C)n2)cc1` [Compound 3b, 4-(4-Methoxyphenyl)-2-(2-(8-methyl-8-azabicyclo[3.2.1]octan-3-ylidene)hydrazinyl)thiazole] displayed a melting point of 91 to 93 °C. Moreover, the IC50 in series [3] came to 42.2 ± 4.55 µM. Moreover, the half-inhibitory concentration (IC50) in [4] was 133 ± 25.1 µM. Also, the half-inhibitory concentration (IC50) in series [1] (setting [10]) turned out to be 2.53 ± 0.07 µM. Moreover, the IC50 in series [2] (setting [11]) turned out to be 2.2 ± 0.04 µM. Further, in series [5], the “Inhibitory Mechanism” value was “mixed”.

As for `CN1C2CCC1CC(=NNc1nc(-c3ccc(C#N)cc3)cs1)C2` [Compound 3c, 4-[2-[2-(8-Methyl-8-azabicyclo[3.2.1]oct-3-ylidene)hydrazinyl]-1,3-thiazol-4-yl]benzonitrile], the melting point was in the range of 90 to 92 °C. Besides, the IC50 in [3] came out at 31.7 ± 2.77 µM. In series [4], the IC50 was determined as 74.9 ± 7.65 µM. Besides, the half-inhibitory concentration (IC50) in series [1] (setting [10]) turned out to be 2.7 ± 0.14 µM. Further, in [2] (setting [11]), the 50% inhibitory concentration (IC50) was found to be 1.52 ± 0.13 µM. For the same compound, in series [5], the “Inhibitory Mechanism” value is reported as “mixed”.

The compound `CN1C2CCC1CC(=NNc1nc(-c3ccc([N+](=O)[O-])cc3)cs1)C2` [Compound 3d, 4-(4-Nitrophenyl)-2-(2-(8-methyl-8-azabicyclo[3.2.1]octan-3-ylidene)hydrazinyl)thiazole] showed a melting point of 99 to 101 °C. Moreover, the IC50 in series [3] was determined as 17.9 ± 1.78 µM. For the same compound, the IC50 in [4] is 31 ± 4.62 µM. For the same compound, in series [1] (setting [10]), the half-maximal inhibitory concentration (IC50) was found to be 2.44 ± 0.14 µM. In [2] (setting [11]), the IC50 amounted to 1.91 ± 0.04 µM. For the same compound, the “Inhibitory Mechanism” value in [5] was “mixed”.

`CN1C2CCC1CC(=NNc1nc(-c3ccc(N)cc3)cs1)C2` [Compound 3e, 4-[2-[2-(8-Methyl-8-azabicyclo[3.2.1]oct-3-ylidene)hydrazinyl]-1,3-thiazol-4-yl]aniline]: the melting point lay in the range of 85 to 87 °C. In series [3], the IC50 amounted to 67 ± 7.14 µM. Further, the half-maximal inhibitory concentration (IC50) in series [4] stood at 263 ± 105 µM. Also, in series [1] (setting [10]), the IC50 amounted to 2.81 ± 0.12 µM. The half-maximal inhibitory concentration (IC50) in series [2] (setting [11]) was 2.68 ± 0.4 µM. Moreover, in series [5], the “Inhibitory Mechanism” value is reported as “mixed”. The “CC50 ± SD HSF” value in series [6] is “no toxicity”. The “CC50 ± SD CCD-18Co” value in [7] was “no toxicity”. In [8], the CC50 at 24 h was above 100 µM. The CC50 at 24 h in [9] is above 100 µM.

With `CN1C2CCC1CC(=NNc1nc(-c3ccc(NS(C)(=O)=O)cc3)cs1)C2` [Compound 3f, N-(4-[2-[2-(8-Methyl-8-azabicyclo[3.2.1]oct-3-ylidene)hydrazinyl]-1,3-thiazol-4-yl]phenyl)methane-sulfonamide], the melting point was in the range of 98 to 100 °C. Further, the IC50 in series [3] came out at 107 ± 7.22 µM. For the same compound, the IC50 in series [4] came to 117 ± 22.8 µM. Moreover, in [1] (setting [10]), the IC50 came to 2.48 ± 0.08 µM. In addition, the IC50 in [2] (setting [11]) was 2.14 ± 0.23 µM. Moreover, the “Inhibitory Mechanism” value in [5] is reported as “mixed”. Moreover, the “CC50 ± SD HSF” value in series [6] was “weak”. Further, the “CC50 ± SD CCD-18Co” value in series [7] is “no toxicity”. For the same compound, the CC50 at 24 h in [8] turned out to be 98.7 ± 4.16 µM. Also, the CC50 at 24 h in [9] was above 100 µM.

For the compound `CN1C2CCC1CC(=NNc1nc(-c3cc4ccccc4oc3=O)cs1)C2` [Compound 3g, 3-[2-[2-(8-Methyl-8-azabicyclo[3.2.1]oct-3-ylidene)hydrazinyl]-1,3-thiazol-4-yl]-2H-chromen-2-one], the melting point lay within 110 to 113 °C. Further, in [3], the IC50 turned out to be 23.2 ± 4.52 µM. For the same compound, the IC50 in series [4] amounted to 29.3 ± 3.98 µM. Moreover, in series [1] (setting [10]), the IC50 came out at 2.83 ± 0.06 µM. Also, the IC50 in series [2] (setting [11]) came to 3 ± 0.26 µM. Besides, the “Inhibitory Mechanism” value in series [5] was “mixed”. Also, the CC50 at 24 h in [8] was 35.3 ± 5.52 µM. This compound also showed a CC50 at 24 h in [9] of 42.6 ± 5.89 µM.

In turn, `CC(=O)Nc1ccc(-c2csc(NN=C3CC4CCC(C3)N4C)n2)cc1` [Compound 3h, N-(4-[2-[2-(8-Methyl-8-azabicyclo[3.2.1]oct-3-ylidene)hydrazinyl]-1,3-thiazol-4-yl]phenyl)acetamide] gave a melting point of 97 to 99 °C. Moreover, the 50% inhibitory concentration (IC50) in [3] came to 108 ± 4.8 µM. In addition, the IC50 in [4] came out at 189 ± 33 µM. Besides, the half-maximal inhibitory concentration (IC50) in series [1] (setting [10]) is 2.9 ± 0.25 µM. Further, the 50% inhibitory concentration (IC50) in series [2] (setting [11]) worked out at 3.03 ± 0.18 µM. The “Inhibitory Mechanism” value in series [5] is given as “mixed”. Moreover, the “CC50 ± SD HSF” value in series [6] is listed as “no toxicity”. In addition, in series [7], the “CC50 ± SD CCD-18Co” value is listed as “no toxicity”. The compound further had a CC50 at 24 h in series [8] above 100 µM. The compound also came in with a CC50 at 24 h in series [9] above 100 µM.
